Measurements from EP3362444B1, “COMPOUNDS” (Exonate Limited, priority 2015, dated 2017).

Target: T1, SRPK1 (Homo sapiens, UniProt Q96SB4)
T1 construct: 0.1 µg of purified SRPK1 kinase
Assay: In vitro kinase assay (Kinase-Glo), SRPK1 inhibition
Type: biochemical
Conditions: SRPK1 inhibition assay; 1 µM ATP, SRSF1 RS peptide, 30°C 10 minutes
Procedure: Candidate compounds were tested for SRPK1 inhibition using a Kinase-Glo assay (Promega, Southampton, UK32). […] Candidate compounds were serially diluted from 10 µM to 0.5 nM and added to the reaction mixture, wells with omitted SRPK1 kinase and omitted compounds were also added as controls. All wells contained 1% DMSO (Fisher Scientific, Loughborough, UK). One micromolar ATP was added, wells minus ATP were used as background controls. The plate was then incubated at 30°C for 10 minutes. An equal volume of Kinase-Glo (25 µL; Promega) was added to each well and the plate read for luminescence using a Fluostar Optima (BMG Labtech) .

T1 sequence (Q96SB4 whole entry): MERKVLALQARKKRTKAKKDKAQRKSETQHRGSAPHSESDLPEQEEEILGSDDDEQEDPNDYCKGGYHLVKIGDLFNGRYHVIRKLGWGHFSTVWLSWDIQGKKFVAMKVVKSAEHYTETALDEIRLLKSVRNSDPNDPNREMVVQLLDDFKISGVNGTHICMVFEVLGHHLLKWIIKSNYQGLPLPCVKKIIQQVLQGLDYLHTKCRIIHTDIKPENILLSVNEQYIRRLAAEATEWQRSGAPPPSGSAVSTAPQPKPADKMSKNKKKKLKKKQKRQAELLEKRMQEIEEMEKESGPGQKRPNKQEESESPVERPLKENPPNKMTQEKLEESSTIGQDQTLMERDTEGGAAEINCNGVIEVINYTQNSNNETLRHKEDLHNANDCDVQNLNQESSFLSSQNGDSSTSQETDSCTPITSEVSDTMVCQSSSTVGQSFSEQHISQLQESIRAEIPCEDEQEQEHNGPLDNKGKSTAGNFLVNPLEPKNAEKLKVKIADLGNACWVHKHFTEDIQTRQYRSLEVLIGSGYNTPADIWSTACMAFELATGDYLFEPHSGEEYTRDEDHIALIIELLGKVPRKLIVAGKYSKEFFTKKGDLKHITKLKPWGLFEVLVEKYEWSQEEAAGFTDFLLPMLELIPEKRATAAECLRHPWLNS

Compound	IC50 [nM]
Cc1ccc(CN2CCN(c3ccc(C(F)(F)F)cc3NC(=O)c3ccc(C)o3)CC2)o1 [Compound 46, 5-methyl-N-(2-(4-((5-methylfuran-2-yl)methyl)piperazin-1-yl)-5-(trifluoromethyl)phenyl)furan-2-carboxamide]	10.7
O=C(Nc1cc(C(F)(F)F)ccc1N1CCN(Cc2ccoc2)CC1)c1ccccn1 [Compound 72, N-(2-(4-(furan-3-ylmethyl)piperazin-1-yl)-5-(trifluoromethyl)phenyl)picolinamide]	5.3
Cc1nnc(CN2CCN(c3ccc(C(F)(F)F)cc3NC(=O)c3ccco3)CC2)o1 [Compound 49, N-(2-(4-((5-methyl-1,3,4-oxadiazol-2-yl)methyl)piperazin-1-yl)-5-(trifluoromethyl)phenyl)furan-2-carboxamide]	117
O=C(Nc1cc(C(F)(F)F)ccc1N1CCN(Cc2c[nH]c3ccccc23)CC1)c1ccco1 [Compound 75, N-(2-(4-((1H-indol-3-yl)methyl)piperazin-1-yl)-5-(trifluoromethyl)phenyl)furan-2-carboxamide]	74.9
O=C(Nc1cc(C(F)(F)F)ccc1N1CCN(Cc2ccno2)CC1)c1ccco1 [Compound 63, N-(2-(4-(isoxazol-5-ylmethyl)piperazin-1-yl)-5-(trifluoro-methyl)phenyl)furan-2-carboxamide]	317
O=C(Nc1cc(C(F)(F)F)ccc1N1CCN(Cc2cocn2)CC1)c1cccc(C2CCOCC2)n1 [Compound 58, N-(2-(4-(oxazol-4-ylmethyl)piperazin-1-yl)-5-(trifluoromethyl)phenyl)-6-(tetrahydro-2H-pyran-4-yl)picolinamide]	104
O=C(Nc1cc(C(F)(F)F)ccc1N1CCN(Cc2cocn2)CC1)c1cnccn1 [Compound 52, N-(2-(4-(oxazol-4-ylmethyl)piperazin-1-yl)-5-(trifluoro-methyl)phenyl)pyrazine-2-carboxamide]	162
O=C(Nc1cc(C(F)(F)F)ccc1N1CCN(Cc2ccoc2)CC1)c1ccc(C2CCOCC2)o1 [Compound 43, N-(2-(4-(furan-3-ylmethyl)piperazin-1-yl)-5-(trifluoromethyl)phenyl)-5-(tetrahydro-2H-pyran-4-yl)furan-2-carboxamide]	0.7
O=C(Nc1cc(C(F)(F)F)ccc1N1CCN(Cc2cocn2)CC1)c1ccccc1 [Compound 71, N-(2-(4-(oxazol-4-ylmethyl)piperazin-1-yl)-5-(trifluoromethyl)phenyl) benzamide]	718
O=C(Nc1cc(C(F)(F)F)ccc1N1CCN(Cc2cscn2)CC1)c1ccccn1 [Compound 31, N-(2-(4-(thiazol-4-ylmethyl)piperazin-1-yl)-5-(trifluoromethyl)phenyl)-picolinamide]	6.7
O=C(Nc1cc(C(F)(F)F)ccc1N1CCN(Cc2ccoc2)CC1)c1ccco1 [Compound 47, N-(2-(4-(furan-3-ylmethyl)piperazin-1-yl)-5-(trifluoromethyl)phenyl)furan-2-carboxamide]	21.9
O=C(Nc1cc(C(F)(F)F)ccc1N1CCN(Cc2cocn2)CC1)c1ccncn1 [Compound 56, N-(2-(4-(oxazol-4-ylmethyl)piperazin-1-yl)-5-(trifluoro-methyl)phenyl)pyrimidine-4-carboxamide]	134
O=C(Nc1cc(C(F)(F)F)ccc1N1CCN(Cc2c[nH]c3ccccc23)CC1)c1ccccn1 [Compound 38, N-(2-(4-((1H-indol-3-yl)methyl)piperazin-1-yl)-5-(trifluoromethyl)phenyl)picolinamide]	31.3
O=C(Nc1cc(C(F)(F)F)ccc1N1CCN(Cc2cocn2)CC1)c1nc2ccccc2o1 [Compound 55, N-(2-(4-(oxazol-4-ylmethyl)piperazin-1-yl)-5-(trifluoromethyl)phenyl)benzo[d]oxazole-2-carboxamide]	1840
O=C(Nc1cc(C(F)(F)F)ccc1N1CCN(Cc2ccco2)CC1)c1ccncc1 [Compound 35, N-(2-(4-(furan-2-ylmethyl)piperazin-1-yl)-5-(trifluoromethyl)-phenyl)isonicotinamide]	388
O=C(Nc1cc(C(F)(F)F)ccc1N1CCN(Cc2cocn2)CC1)c1ccno1 [Compound 50, N-(2-(4-(oxazol-4-ylmethyl)piperazin-1-yl)-5-(trifluoro-methyl)phenyl)isoxazole-5-carboxamide]	561
O=C(Nc1cc(C(F)(F)F)ccc1N1CCN(Cc2cocn2)CC1)c1ncco1 [Compound 42, N-(2-(4-(oxazol-4-ylmethyl)piperazin-1-yl)-5-(trifluoro-methyl)phenyl)oxazole-2-carboxamide]	1260
O=C(Nc1cc(C(F)(F)F)ccc1N1CCN(Cc2cocn2)CC1)c1ccccn1 [Compound 36, N-(2-(4-(oxazol-4-ylmethyl)piperazin-1-yl)-5-(trifluoromethyl)phenyl)-picolinamide]	21.6

Compound	IC50 [nM]
O=C(Nc1cc(C(F)(F)F)ccc1N1CCN(Cc2ccno2)CC1)c1ccc(C2CCOCC2)o1 [Compound 64, N-(2-(4-(isoxazol-5-ylmethyl)piperazin-1-yl)-5-(trifluoro-methyl)phenyl)-5-(tetrahydro-2H-pyran-4-yl)furan-2-carboxamide]	5.5
O=C(Nc1cc(C(F)(F)F)ccc1N1CCN(Cc2cocn2)CC1)c1ncccn1 [Compound 54, N-(2-(4-(oxazol-4-ylmethyl)piperazin-1-yl)-5-(trifluoro-methyl)phenyl)pyrimidine-2-carboxamide]	344
Cc1ccc(CN2CCN(c3ccc(C(F)(F)F)cc3NC(=O)c3ccccn3)CC2)o1 [Compound 40, N-(2-(4-((5-methylfuran-2-yl)methyl)piperazin-1-yl)-5-(trifluoro-methyl)phenyl)picolinamide]	145
Cc1ccc(C(=O)Nc2cc(C(F)(F)F)ccc2N2CCN(Cc3ccoc3)CC2)o1 [Compound 45, N-(2-(4-(furan-3-ylmethyl)piperazin-1-yl)-5-(trifluoromethyl)phenyl)-5-methylfuran-2-carboxamide]	1.8
O=C(Nc1cc(C(F)(F)F)ccc1N1CCN(Cc2cocn2)CC1)c1cocn1 [Compound 57, N-(2-(4-(oxazol-4-ylmethyl)piperazin-1-yl)-5-(trifluoro-methyl)phenyl)oxazole-4-carboxamide]	117
O=C(Nc1cc(C(F)(F)F)ccc1N1CCN(Cc2cocn2)CC1)c1ccco1 [Compound 39, N-(2-(4-(oxazol-4-ylmethyl)piperazin-1-yl)-5-(trifluoro-methyl)-phenyl)furan-2-carboxamide]	60.7
O=C(Nc1cc(C(F)(F)F)ccc1N1CCN(Cc2cncs2)CC1)c1ccccn1 [Compound 32, N-(2-(4-(thiazol-5-ylmethyl)piperazin-1-yl)-5-(trifluoromethyl)phenyl)-picolinamide]	0.5
O=C(Nc1cc(C(F)(F)F)ccc1N1CCN(Cc2cocn2)CC1)c1cc2ccccc2o1 [Compound 51, N-(2-(4-(oxazol-4-ylmethyl)piperazin-1-yl)-5-(trifluoro-methyl)-phenyl)benzofuran-2-carboxamide]	21
Cc1ccc(CN2CCN(c3ccc(C(F)(F)F)cc3NC(=O)c3ccc(C4CCOCC4)o3)CC2)o1 [Compound 44, N-(2-(4-((5-methylfuran-2-yl)methyl)piperazin-1-yl)-5-(trifluoromethyl)phenyl)-5-(tetrahydro-2H-pyran-4-yl)furan-2-carboxamide]	3.7
Cn1ccc(CN2CCN(c3ccc(C(F)(F)F)cc3NC(=O)c3ccccn3)CC2)n1 [Compound 34, N-(2-(4-((1-methyl-1H-pyrazol-3-yl)methyl)piperazin-1-yl)-5-(trifluoromethyl)phenyl)picolinamide]	27
O=C(Nc1cc(C(F)(F)F)ccc1N1CCN(Cc2cocn2)CC1)c1cc[nH]n1 [Compound 53, N-(2-(4-(oxazol-4-ylmethyl)piperazin-1-yl)-5-(trifluoro-methyl)phenyl)-1H-pyrazole-3-carboxamide]	83.1
O=C(Nc1cc(C(F)(F)F)ccc1N1CCN(Cc2cnoc2)CC1)c1ccccn1 [Compound 67, N-(2-(4-(isoxazol-4-ylmethyl)piperazin-1-yl)-5-(trifluoro-methyl)phenyl)-picolinamide]	8.8
Cc1ccc(CN2CCN(c3ccc(C(F)(F)F)cc3NC(=O)c3ccco3)CC2)o1 [Compound 48, N-(2-(4-((5-methylfuran-2-yl)methyl)piperazin-1-yl)-5-(trifluoromethyl)phenyl)furan-2-carboxamide]	32.6
O=C(Nc1cc(C(F)(F)F)ccc1N1CCN(Cc2cncs2)CC1)c1ccc(C2CCOCC2)o1 [Compound 70, 5-(tetrahydro-2H-pyran-4-yl)-N-(2-(4-(thiazol-5-ylmethyl)piperazin-1-yl)-5-(trifluoromethyl)phenyl)furan-2-carboxamide]	0.5
O=C(Nc1cc(C(F)(F)F)ccc1N1CCN(Cc2cocn2)CC1)c1ccc(C2CCOCC2)cn1 [Compound 59, N-(2-(4-(oxazol-4-ylmethyl)piperazin-1-yl)-5-(trifluoromethyl)phenyl)-5-(tetrahydro-2H-pyran-4-yl)picolinamide]	974
O=C(Nc1cc(C(F)(F)F)ccc1N1CCN(Cc2ccno2)CC1)c1ccccn1 [Compound 62, N-(2-(4-(isoxazol-5-ylmethyl)piperazin-1-yl)-5-(trifluoro-methyl)phenyl)picolinamide]	2.8
O=C(Nc1cc(C(F)(F)F)ccc1N1CCN(Cc2cc[nH]n2)CC1)c1ccccn1 [Compound 33, N-(2-(4-((1H-pyrazol-3-yl)methyl)piperazin-1-yl)-5-(trifluoromethyl)-phenyl)picolinamide]	12.7

Same assay, conditions: by kinase assay or differential scanning fluorimetry; Figures 1 and 2

Compound	potency against SRPK1 relative to analogous compounds in which R3 is a pyridyl ring
O=C(Nc1cc(C(F)(F)F)ccc1N1CCN(Cc2ccoc2)CC1)c1ccc(C2CCOCC2)o1 [Compound 43, N-(2-(4-(furan-3-ylmethyl)piperazin-1-yl)-5-(trifluoromethyl)phenyl)-5-(tetrahydro-2H-pyran-4-yl)furan-2-carboxamide]	improved potency
